Laboratory results as given in patent US20240217973A1, “IMIDAZOPYRIDINE COMPOUNDS AND USE THEREOF” (MEDSHINE DISCOVERY INC., priority 2021, published 2024).

Key:
plasma proteins [1] = assay: Plasma protein binding experiment (PPB), R; type: in vitro ADME, rat; conditions: 2 μM, 4 hours dialysis
Method: (§1) Experimental operation: 995 μL of blank plasma of each genus was taken, 5 μL of working solution of test compound (400 μM) or working solution of warfarin (400 μM) was added, so that the final concentrations of the test compound and warfarin in the plasma sample was 2 μM. The sample was mixed thoroughly. The final concentration of the organic phase DMSO was 0.5%; 50 μL of plasma samples of the test compound and warfarin were pipetted into the sample receiving plate (three parallels), and the corresponding volume of the corresponding blank plasma or buffer was immediately added so that the final volume of each sample well was 100 μL, with a volume ratio of 1:1 for plasma: dialysis buffer, and then 500 μL of stop solution was added to these samples, and these samples would be used as a T0 sample for the recovery and stability determination. […] All samples were analyzed by LC/MS/MS after protein precipitation, and the protein binding rate and recovery rate were calculated by the formula: % Unbound=100*F/T, % Bound=100−% Unbound, % Recovery 100*(F+T) T0 (where F was the peak area ratio of the compound in the dialysate after 4 hours of dialysis; T was the peak area ratio of the compound in the plasma after 4 hours of dialysis, and T0 was the peak area ratio of the compound in the plasma sample at zero time).

[2] = tested on: experimental autoimmune encephalomyelitis (EAE) model; assay: In vivo efficacy of EAE in C57BL/6 mice; conditions: C57BL/6 female mice, 5 mg/kg
Method: Experimental methods: Experimental autoimmune encephalomyelitis (EAE) model was established in 10-week-old C57BL/6 female mice, and the animals were randomly divided into two groups according to their weight, of which, group G1 was a pure modeling group with 5 animals, and group G2 was a subject 002 group with 7 animals. On day 0, 100 μL of myelin oligodendrocyte glycoprotein (MOG) emulsion was injected subcutaneously into the hind flank of each animal in the G1-G2 group at two points, totaling 200 μL. After 2 hours and 48 hours, respectively, 200 μL of pertussis toxin (PTX) was injected subcutaneously into the animals of groups G1-G2. The in vivo experiment was finished on day 22, and no treatment was given to group G1 from day 0; G2 group was administered 5 mg/kg of subject 002 once a day for […]. The animals in each group were weighed and scored (including tail weakness, claudication, hind limb paralysis, hind limb paralysis and other symptoms) every 2 days. [table] [table]

plasma proteins [3] = assay: Plasma protein binding experiment (PPB), H; type: in vitro ADME, human; conditions: 2 μM, 4 hours dialysis
Method: as §1

[4] = Pharmacokinetic evaluation of compounds in mice; type: in vivo, CD-1 mice; conditions: mouse, plasma, CD-1 male mice
Method: Experimental purpose: To test the in vivo pharmacokinetic data of compounds in CD-1 mice.
(§2) The compound was mixed with the solvent 5% DMSO/5% Solutol/90% H2O, vortexed and sonicated to prepare a 0.5 mg/mL clear solution. CD-1 male mice aged 7 to 10 weeks were selected, and administered the candidate compound solution intravenously. Whole blood was collected for a certain period of time, and plasma was prepared. The drug concentration was analyzed by LC-MS/MS method, and pharmacokinetic parameters were calculated by Phoenix WinNonlin software (Pharsight Company, USA).
as §2, with “orally.” for “intravenously.”

[5] = Hepatocyte metabolic stability experiment (HMS), M; type: in vitro ADME; conditions: mouse, M hepatocytes, read-out: HMS CLint(liver)
Method: (§3) Experimental operations: 198 μL of hepatocyte suspension (0.51×10^6 cells/mL) was added to the preheated incubation plate, and 198 μL of culture medium without hepatocytes was added to T0-MC and T120-MC incubation plates for the culture medium control group, and all incubation plates were pre-incubated for 10 minutes in a 37° C. incubator. Then 2 μL of the working solution of the test and control compounds were added and mixed well, and the incubation plate was immediately put into the plate shaker in the incubator, the rotation speed was adjusted to about 650 rpm, and the timer and the reaction were started. 2 duplicate samples for each compound were prepared at each time point. Incubation conditions: 37° C., saturated humidity, and containing 5% CO2. In the test system, the final concentration of the test compound was 1 μM, the final concentration of the control compound was 3 μM, the final concentration of hepatocytes was 0.5×10^6 cells/mL, and the final concentration of the total organic solvent was 0.96%, of which the final concentration of DMSO was 0.1%. […] All samples were mixed and analyzed by LC-MS/MS method. […]

[6] = Hepatocyte metabolic stability experiment (HMS), C; type: in vitro ADME; conditions: cynomolgus monkey, C hepatocytes, read-out: HMS CLint(liver)
Method: as §3

plasma proteins [7] = assay: Plasma protein binding experiment (PPB), D; type: in vitro ADME, dog; conditions: 2 μM, 4 hours dialysis
Method: as §1

[8] = IV, 1.0 mg/kg (002), 1.2 mg/kg (003B)
[9] = PO, 2.9 mg/kg (002), 2.85 mg/kg (003B)

For `Nc1nccc2c1n(-c1ccc(Oc3ccccc3)cc1)c(=O)n2[C@@H]1CCCN(C(=O)/C=C/CF)C1` [Compound 002], which “Unbound PPB” value (plasma proteins [1]) is on record?
The value was 1.3%.

And the “efficacy in EAE model / severity of the disease (in words)” value ([2]; QD, compared with the modeling group)?
Its value is “effective in reducing the severity of the disease”.

What about the “Scores of animals on day 20 after administration” value ([2]; EAE model, QD × 29, moulding group 1.8) of the same compound?
The value was 0.4.

And the “Unbound PPB” value (plasma proteins [3])?
The value was 8.2%.

What about the AUC(0-inf) [4, 8] of the same compound?
The AUC(0-inf) was 0.697 µM·h.

And the C0 [4, 8]?
Its C0 is 4190 nM.

And the Vd [4, 8]?
Its Vd is 0.76 L/kg.

And the clearance [4, 8]?
The clearance was 49 mL/min/kg.

What about the half-life [4, 8] of the same compound?
The half-life was 16.8 min.

What about the AUC(0-inf) [4, 9] of the same compound?
Its AUC(0-inf) is 0.83 µM·h.

What about the Cmax [4, 9] of the same compound?
The Cmax was 1190 nM.

What about the Tmax [4, 9] of the same compound?
Its Tmax is 4.98 min.

And the bioavailability [4, 9]?
Its bioavailability is 39.7%.

And the half-life [4, 9]?
Its half-life is 21 min.

And the CLint scaled at 1 μM [5]?
Its CLint scaled at 1 μM is 702 mL/min/kg.

And the CLint scaled at 1 μM [6]?
The CLint scaled at 1 μM was 203 mL/min/kg.

What about the “Unbound PPB” value (plasma proteins [7]) of the same compound?
The value was 4.3%.
